Assay results taken from US11492335B2, “Aryl or heteroaryl triazolone derivatives or salts thereof, or pharmaceutical compositions comprising the same” (YUHAN CORPORATION, priority 2018, dated 2022).
Where a name gives a salt, the structure may show the parent alone. Read-outs that look alike come from different tables or passages of the source.

Legend:
recombinant human VAP-1 = target: T1, recombinant human VAP-1 (Homo sapiens, UniProt Q16853); assay: Activity on recombinant human VAP-1, Amplex Red HRP-coupled hydrogen peroxide assay, benzylamine substrate; type: biochemical; conditions: recombinant human VAP-1, benzylamine substrate, read-out: Inhibitory Activity (IC50, nM) human VAP-1
T1 construct: purchased R&D systems
T1 sequence (Q16853 1-763): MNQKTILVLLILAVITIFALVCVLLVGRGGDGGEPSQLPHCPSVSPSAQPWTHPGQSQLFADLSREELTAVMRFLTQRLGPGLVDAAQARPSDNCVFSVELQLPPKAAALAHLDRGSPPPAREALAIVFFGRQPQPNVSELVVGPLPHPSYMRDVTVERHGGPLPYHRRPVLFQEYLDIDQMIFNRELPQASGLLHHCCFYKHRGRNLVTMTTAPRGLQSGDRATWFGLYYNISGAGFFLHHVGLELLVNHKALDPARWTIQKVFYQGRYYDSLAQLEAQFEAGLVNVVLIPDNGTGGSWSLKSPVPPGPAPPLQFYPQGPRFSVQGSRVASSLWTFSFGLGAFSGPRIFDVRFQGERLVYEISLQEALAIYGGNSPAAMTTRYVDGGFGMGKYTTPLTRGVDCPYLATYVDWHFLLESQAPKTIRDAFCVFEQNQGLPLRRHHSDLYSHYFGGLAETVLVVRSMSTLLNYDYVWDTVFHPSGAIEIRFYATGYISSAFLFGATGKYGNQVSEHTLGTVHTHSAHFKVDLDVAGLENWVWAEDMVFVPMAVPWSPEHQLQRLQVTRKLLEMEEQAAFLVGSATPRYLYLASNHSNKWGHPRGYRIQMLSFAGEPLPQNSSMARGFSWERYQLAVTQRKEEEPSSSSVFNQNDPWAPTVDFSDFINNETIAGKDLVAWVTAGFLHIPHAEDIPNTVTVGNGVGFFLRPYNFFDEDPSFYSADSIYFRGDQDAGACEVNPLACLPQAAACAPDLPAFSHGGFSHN
Description: (§1) The compounds according to the present technology were evaluated in terms of activity on recombinant human VAP-1 (R&D systems) by measuring the level of hydrogen peroxide in horseradish peroxidase (HRP)-coupled reaction using Amplex Red Hydrogen Peroxide Assay Kit (Molecular Probes, Invitrogen, USA). The experiment was carried out at room temperature using benzylamine as a substrate. In the HRP-coupled reaction, hydrogen peroxide oxidation of 10-acetyl-3,7-dihydroxyphenoxazine (Amplex Red reagent) produces resorufin, which is a highly fluorescent compound. Briefly, the test compound was dissolved in dimethyl sulfoxide (DMSO) at a concentration of 20 mM. The dose-response assessment was made by 1:3 serial dilution in DMSO, thereby creating an 8 point curve. The concentration of the upper part was controlled according to the efficacy of the compounds, followed by dilution with a reaction buffer solution to obtain a final DMSO concentration less than 1%. To each well of a 96 black well plate, human VAP-1 purified in 50 mM sodium phosphate buffer solution (pH7.4) was added. The test compounds dissolved in DMSO were incubated with the human VAP-1 enzymes at 37° C. for 30 minutes. After 30-minute incubation, each well is added with a reaction mixture containing 200 uM Amplex Red reagent prepared from 50 mM sodium phosphate buffer solution (pH 7.4), 1 mM benzylamine, and 1 U/mL HRP. Fluorescence intensity was measured at several time points during 1-2 hours using a microplate reader (Flexstation3, Molecular Devices) under the wavelength condition exciting at 544 nm and reading the emission at 590 nm. The inhibitory effect of the compounds was measured as a decrease (%) in the signal rate as compared to the control group without any inhibitor (only diluted DMSO). Data was fixed to a logistic model with four variables and IC50 value was calculated using GraphPad Prism program.

[1] = target: T2, recombinant human DAO (diamine oxidase) (Homo sapiens, UniProt P19801); assay: Activity on recombinant human DAO, Amplex Red method, 1 mM putrescine substrate; type: biochemical; conditions: recombinant human DAO, 1 mM putrescine; * = between 10 and 100 nM, ** = between 300 and 1000 nM; read-out: Inhibitory Activity (IC50, nM) DAO
T2 construct: purchased R&D systems
T2 sequence (P19801 20-751): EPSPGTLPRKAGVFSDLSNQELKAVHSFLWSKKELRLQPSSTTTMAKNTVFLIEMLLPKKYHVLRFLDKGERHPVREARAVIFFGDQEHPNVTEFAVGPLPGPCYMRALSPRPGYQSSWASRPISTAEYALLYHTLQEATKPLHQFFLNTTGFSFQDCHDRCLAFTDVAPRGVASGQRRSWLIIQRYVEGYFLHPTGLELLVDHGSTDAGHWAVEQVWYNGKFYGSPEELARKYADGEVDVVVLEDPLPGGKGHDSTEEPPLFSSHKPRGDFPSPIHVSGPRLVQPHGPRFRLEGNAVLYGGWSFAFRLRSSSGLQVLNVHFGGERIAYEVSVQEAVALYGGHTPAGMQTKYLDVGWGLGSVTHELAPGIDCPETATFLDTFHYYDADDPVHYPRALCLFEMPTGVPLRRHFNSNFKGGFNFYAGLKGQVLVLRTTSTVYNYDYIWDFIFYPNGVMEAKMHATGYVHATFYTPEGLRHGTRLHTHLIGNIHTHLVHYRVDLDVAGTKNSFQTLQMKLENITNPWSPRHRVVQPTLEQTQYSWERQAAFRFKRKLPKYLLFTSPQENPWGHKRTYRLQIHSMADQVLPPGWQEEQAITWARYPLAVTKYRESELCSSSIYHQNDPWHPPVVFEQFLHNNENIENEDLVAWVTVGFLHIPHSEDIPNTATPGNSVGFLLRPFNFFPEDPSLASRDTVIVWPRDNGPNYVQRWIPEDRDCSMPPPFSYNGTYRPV
Description: as §1
In addition, the compounds according to the present technology were evaluated in terms of activity on a recombinant human MAO-A (monoamine oxidase-A, Sigma-Aldrich) and a recombinant human MAO-B (monoamine oxidase-B, Sigma-Aldrich) by using as substrates, 0.5 mM tyramine and 1 mM benzylamine, respectively, with a method similar to the activity evaluation method for recombinant human VAP-1. The compounds according to the present technology were also evaluated in terms of activity on a recombinant human DAO (diamine oxidase, R&D systems) by using as a substrate 1 mM putrescine with a method similar to the activity evaluation method for recombinant human VAP-1.

Row | Structure (SMILES) | IC50 (recombinant human VAP-1; 30 min preincubation at 37° C.) | IC50 [1] | IC50 (recombinant human VAP-1)
1 | NC/C(=C/F)Cn1ncn(-c2ccc(Br)cc2)c1=O [Example 1, 2-[(2Z)-2-(aminomethyl)-3-fluoroprop-2-en-1-yl]-4-(4-bromophenyl)-2,4-dihydro-3H-1,2,4-triazol-3-one] | 17 nM | – | –
2 | Cc1cc(Br)ncc1-n1cnn(C/C(=C/F)CN)c1=O [Example 28, 2-[(2E)-2-(aminomethyl)-3-fluoroprop-2-en-1-yl]-4-(6-bromo-4-methylpyridin-3-yl)-2,4-dihydro-3H-1,2,4-triazol-3-one hydrochloride] | 45 nM | 1100 nM | –
3 | Cc1cc(Br)cnc1-n1cnn(C/C(=C\F)CN)c1=O [Example 31, 2-[(2Z)-2-(aminomethyl)-3-fluoroprop-2-en-1-yl]-4-(5-bromo-3-methylpyridin-2-yl)-2,4-dihydro-3H-1,2,4-triazol-3-one hydrochloride] | 47 nM | – | –
4 | Cc1cc(-n2cnn(C/C(=C\F)CN)c2=O)ncc1Br [Example 33, 2-[(2Z)-2-(aminomethyl)-3-fluoroprop-2-en-1-yl]-4-(5-bromo-4-methylpyridin-2-yl)-2,4-dihydro-3H-1,2,4-triazol-3-one hydrochloride] | 31 nM | – | –
5 | COc1cc(N2CCOCC2)c(Br)cc1-n1cnn(C/C(=C/F)CN)c1=O [Example 47, 2-[(2E)-2-(aminomethyl)-3-fluoroprop-2-en-1-yl]-4-[5-bromo-2-methoxy-4-(morpholin-4-yl)phenyl]-2,4-dihydro-3H-1,2,4-triazol-3-one hydrochloride] | 2.8 nM | 1200 nM | –
6 | NC/C(=C\F)Cn1ncn(-c2cccc(-c3cncc4ccccc34)c2)c1=O [Example 104, 2-[(2E)-2-(aminomethyl)-3-fluoroprop-2-en-1-yl]-4-[3-(isoquinolin-4-yl)phenyl]-2,4-dihydro-3H-1,2,4-triazol-3-one hydrochloride] | 3 nM | 54 nM | –
7 | Cc1cc(-c2ccc3nonc3c2)ncc1-n1cnn(C/C(=C/F)CN)c1=O [Example 125, 2-[(2E)-2-(aminomethyl)-3-fluoroprop-2-en-1-yl]-4-[6-(2,1,3-benzooxadiazol-5-yl)-4-methylpyridin-3-yl]-2,4-dihydro-3H-1,2,4-triazol-3-one] | 1.2 nM | < 100 nM | –
8 | CC(=O)Nc1nc2cc(-c3cc(C)c(-n4cnn(C/C(=C/F)CN)c4=O)cn3)ccc2s1 [Example 128, N-[5-(5-{1-[(2E)-2-(aminomethyl)-3-fluoroprop-2-en-1-yl]-5-oxo-1,5-dihydro-4H-1,2,4-triazol-4-yl}-4-methylpyridin-2-yl)-1,3-benzothiazol-2-yl]acetamide] | 0.82 nM | < 100 nM | –
9 | Cc1cc(N2CCNCC2)cnc1-n1cnn(C/C(=C/F)CN)c1=O [Example 131, 2-[(2E)-2-(aminomethyl)-3-fluoroprop-2-en-1-yl]-4-[3-methyl-5-(piperazin-1-yl)pyridin-2-yl]-2,4-dihydro-3H-1,2,4-triazol-3-one] | 8.2 nM | 4200 nM | –

Continued, values first:

Row | IC50 (recombinant human VAP-1; 30 min preincubation at 37° C.) | IC50 [1] | IC50 (recombinant human VAP-1) | Structure (SMILES)
10 | 2.5 nM | < 30 nM | – | CS(=O)(=O)c1ccc(-c2cccc(-n3cnn(C/C(=C\F)CN)c3=O)c2)cc1 [Example 53, 2-[(2Z)-2-(aminomethyl)-3-fluoroprop-2-en-1-yl]-4-[4′-(methylsulfonyl)biphenyl-3-yl]-2,4-dihydro-3H-1,2,4-triazol-3-one hydrochloride]
11 | 1.3 nM | < 100 nM | – | NC/C(=C/F)Cn1ncn(-c2cccc(-c3cccc(-c4nnc[nH]4)c3)c2)c1=O [Example 60, 2-[(2Z)-2-(aminomethyl)-3-fluoroprop-2-en-1-yl]-4-[3′-(4H-1,2,4-triazol-3-yl)biphenyl-3-yl]-2,4-dihydro-3H-1,2,4-triazol-3-one]
12 | 1.5 nM | 13 nM | – | Cc1ncc(-c2cccc(-n3cnn(C/C(=C/F)CN)c3=O)c2)cn1 [Example 91, 2-[(2E)-2-(aminomethyl)-3-fluoroprop-2-en-1-yl]-4-[3-(2-methylpyrimidin-5-yl)phenyl]-2,4-dihydro-3H-1,2,4-triazol-3-one hydrochloride]
13 | 8.1 nM | 740 nM | – | CC(=O)Nc1cc(-c2cccc(-n3cnn(C/C(=C/F)CN)c3=O)c2C)ccn1 [Example 109, N-[4-(3-{1-[(2E)-2-(aminomethyl)-3-fluoroprop-2-en-1-yl]-5-oxo-1,5-dihydro-4H-1,2,4-triazol-4-yl}-2-methylphenyl)pyridin-2-yl]acetamide]
14 | 2.3 nM | < 1000 nM | – | Cc1c(-c2ccc3nonc3c2)cccc1-n1cnn(C/C(=C/F)CN)c1=O [Example 113, 2-[(2E)-2-(aminomethyl)-3-fluoroprop-2-en-1-yl]-4-[3-(2,1,3-benzooxadiazol-5-yl)-2-methylphenyl]-2,4-dihydro-3H-1,2,4-triazol-3-one]
15 | 0.94 nM | < 100 nM | – | Cc1cc(-c2ccc(S(C)(=O)=O)cc2)ncc1-n1cnn(C/C(=C/F)CN)c1=O [Example 119, 2-[(2E)-2-(aminomethyl)-3-fluoroprop-2-en-1-yl]-4-{4-methyl-6-[4-(methylsulfonyl)phenyl]pyridin-3-yl}-2,4-dihydro-3H-1,2,4-triazol-3-one]
16 | 0.77 nM | < 100 nM | – | Cc1cc(-c2cccc(-c3nc[nH]n3)c2)ncc1-n1cnn(C/C(=C/F)CN)c1=O [Example 122, 2-[(2E)-2-(aminomethyl)-3-fluoroprop-2-en-1-yl]-4-{4-methyl-6-[3-(1H-1,2,4-triazol-3-yl)phenyl]pyridin-3-yl}-2,4-dihydro-3H-1,2,4-triazol-3-one]
17 | – | – | 23 nM | NC/C(=C\F)Cn1ncn(-c2cccc(-c3ccc(-c4noc(=O)[nH]4)cc3)n2)c1=O [Example 182, 3-[4-(6-{1-[(2E)-2-(aminomethyl)-3-fluoroprop-2-en-1-yl]-5-oxo-1,5-dihydro-4H-1,2,4-triazol-4-yl}pyridin-2-yl)phenyl]-1,2,4-oxadiazol-5(4H)-one hydrochloride]
